Data from patent US12226410B2, “Methods for enhancing cellular clearance of pathological molecules via activation of the cellular protein ykt6” (NORTHWESTERN UNIVERSITY, priority 2019, dated 2025).

Tested on: DASYN53 mice
Test: Behavioral analysis of DASYN53 mice (body weight, Rotarod)
Type: in vivo
Conditions: i.p. 0.9 mg/kg
Description: FIGS. 8A, 8B, 8C, 8D, 8E, and 8F. FTI treatment enhances GCase activity and reduces pathological a-syn in transgenic mice. 8A) GCase activity in the midbrain of FTI (LNK-754)-treated DASYN53 mice (treated as in FIG. 7) (n=4, veh; n=5, FTI). 8B & 8C) Quantification of soluble and insoluble a-syn from midbrains of FTI-treated DASYN53 mice normalized to total protein (CBB). Syn211 is selective for human (hu) a-syn; C20 and syn303 detect mouse (ms) and hu a-syn, (n=3, nTg+Veh; n=4, DASYN53+veh; n=5 DASYN53+FTI). 8D) Midbrain TH levels were quantified by western blot of FTI-treated DASYN53 mice (n=3). 8E) Body weight of FTI-treated DASYN53 mice (n=9, nTg+Veh; n=7, DASYN53+veh; n=7 DASYN53+FTI). 8F) Rotarod test of FTI-treated DASYN53 mice (n=12, nTg+Veh; n=7, DASYN53+veh; n=7 DASYN53+FTI). Values are the mean+/−SEM. *p<0.05, **p<0.01, and *** p<0.001. Student's t-test, panel A; ANOVA with Tukey's posthoc test, panels B-F.
Behavioral analysis of DASYN53 mice. These assays were done as previously described (Tsika et al., 2010). […] Balance and motor behavior testing was done at the end of the injection protocol (between days 24-26) and determined using a Rotarod apparatus (Ugo Basile) with acceleration from 4-40 rpm over a 300 second period. Latency to fall was recorded over 4 trials per mouse, and the data were presented as the average of 3 trials (excluding the first trial as a training session). […]

Which results are given for C#Cc1cccc(-c2cc(=O)n(C)c3ccc([C@](O)(c4ccc(Cl)cc4)c4cncn4C)cc23)c1 [LNK-754]?
reduction in body weight of DASYN53 mice (day 23-24): rescued; reduction in motor performance (Rotarod) of DASYN53 mice (days 24-26): rescued
